# Assay results from publication PMC4871512, “Drug-Based Lead Discovery: The Novel Ablative Antiretroviral Profile of Deferiprone in HIV-1-Infected Cells and in HIV-Infected Treatment-Naive Subjects of a Double-Blind, Placebo-Controlled, Randomized Exploratory Trial” (PLoS ONE, 2016).
# Read-outs that look alike come from different tables or passages of the source.
# Key:
# [1] = system: HIV-1 clinical isolate in PBMCs; assay: p24 core antigen ELISA in supernatant of isolate-infected, long-term replenished primary cell cultures; type: cell-based; details: for p24, level relative to untreated controls: after two weeks, stably infected replenished primary cell cultures
# Experimental: Cell-free supernatants were used for p24 and HIV-1 RNA measurements. p24 core antigen in the supernatant was quantified by ELISA (Retrotek HIV-1 p24®; ZeptoMetrix Corp.; Buffalo, NY). HIV-1 RNA copy number in the supernatant of PBMC cultures and in plasma of trial subjects enrolled in the exploratory deferiprone trial was determined with a PCR-based and FDA-approved assay (Amplicor HIV-1 Monitor®; Roche Diagnostics Corp.; Indianapolis, IN). For clinical samples, the assay was used per the Standard Specimen Processing Procedure (sensitivity limit 400 copies/ml); for cell culture samples, the assay was used in both the Standard Specimen Processing and the UltraSensitive Specimen Processing Procedure (sensitivity limit 50 copies/ml). If not specified further, the term “log10” designates the amount of HIV-1 RNA in the dimensions [log10 / ml]. The Roche Amplicor HIV-1 DNA Test (Roche Diagnostics Corp.; Indianapolis, IN) was used for detection of HIV-1 DNA with the primer pair SK431/462, which amplifies a highly conserved region of the gag genome of HIV-1 subtype B DNA. Results are shown per the assay’s optical readings of a chromogenic reaction that relates absorbance at 450 nm to the HIV-1 DNA copy number and is calibrated by assay-internal copy controls (A450 < 0.350, HIV-1 DNA absent; A450 ≥ 3.0, HIV-1 DNA present in excess of 20 copies; A450 between 0.350 and 3.0, HIV-1 DNA copy number per copy controls). Apoptotic DNA fragmentation was quantified flow-cytometrically, using a terminal deoxynucleotide transferase dUTP nick end-labeling (TUNEL) assay (APO-BRDU™; Phoenix Flow Systems; San Diego, CA). All experiments and assays were performed at least in duplicate.
# The antiretroviral activity of deferiprone was tested in primary cultures of PBMCs, infected in vitro with clinical isolate or mock-infected with clinical isolate-identical cell- and virus-free medium as described. Briefly, to approximate the bi-compartmental mode of HIV-1 infection in vivo, which comprises a cell-generative compartment that provides non-infected but HIV-1 susceptible cells, and an HIV-generative compartment in which they become infected, the cultures were replenished as described with freshly obtained uninfected primary cells and medium at regular intervals, assuring identical cell number in both the treated and control cultures by computerized trypan blue exclusion analysis (Vi-CELL™; Beckman Coulter, Miami, FL); deferiprone concentrations were adjusted as indicated. This model allowed for months-long monitoring of HIV-1 parameters in productively infected cultures.
# HIV-1 DNA = HIV-1 DNA (Roche Amplicor HIV-1 DNA Test) in isolate-infected primary cell cultures; type: cell-based; details: 200 μM deferiprone
# Experimental: Cell-free supernatants were used for p24 and HIV-1 RNA measurements. p24 core antigen in the supernatant was quantified by ELISA (Retrotek HIV-1 p24®; ZeptoMetrix Corp.; Buffalo, NY). HIV-1 RNA copy number in the supernatant of PBMC cultures and in plasma of trial subjects enrolled in the exploratory deferiprone trial was determined with a PCR-based and FDA-approved assay (Amplicor HIV-1 Monitor®; Roche Diagnostics Corp.; Indianapolis, IN). For clinical samples, the assay was used per the Standard Specimen Processing Procedure (sensitivity limit 400 copies/ml); for cell culture samples, the assay was used in both the Standard Specimen Processing and the UltraSensitive Specimen Processing Procedure (sensitivity limit 50 copies/ml). If not specified further, the term “log10” designates the amount of HIV-1 RNA in the dimensions [log10 / ml]. […] Results are shown per the assay’s optical readings of a chromogenic reaction that relates absorbance at 450 nm to the HIV-1 DNA copy number and is calibrated by assay-internal copy controls (A450 < 0.350, HIV-1 DNA absent; A450 ≥ 3.0, HIV-1 DNA present in excess of 20 copies; A450 between 0.350 and 3.0, HIV-1 DNA copy number per copy controls). Apoptotic DNA fragmentation was quantified flow-cytometrically, using a terminal deoxynucleotide transferase dUTP nick end-labeling (TUNEL) assay (APO-BRDU™; Phoenix Flow Systems; San Diego, CA). […]
# [2] = system: HIV-infected peripheral blood mononuclear cells; assay: Apoptotic DNA fragmentation by TUNEL in single-donor non-replenished PBMC cultures; type: cell-based, human; details: 200 μM deferiprone
# Experimental: Fig 2 Effect of deferiprone in HIV-infected primary cells: Apoptotic DNA fragmentation, deoxyhypusyl-eIF5A accumulation, and DOHH activity. Apoptotic DNA fragmentation (Panel A) was detected by terminal deoxynucleotide transferase dUTP nick end labeling (TUNEL) of single-donor peripheral blood mononuclear cells, maintained in short-term non-replenished cultures as described. Cells were left uninfected and/or untreated; or infected immediately after plating with clinical HIV-1 isolate and 12 hours after infection, treated with 200 μM deferiprone. […] The dose-effect curve for inhibition of cellular DOHH by increasing deferiprone concentrations in short-term non-replenished single-donor cultures (Panel C) was calculated from the accumulation of its ^3H-labeled substrate and the decrease of its ^3H-labeled product; error bars are at the size of the graph symbols and not shown. […]
# Cell-free supernatants were used for p24 and HIV-1 RNA measurements. p24 core antigen in the supernatant was quantified by ELISA (Retrotek HIV-1 p24®; ZeptoMetrix Corp.; Buffalo, NY). HIV-1 RNA copy number in the supernatant of PBMC cultures and in plasma of trial subjects enrolled in the exploratory deferiprone trial was determined with a PCR-based and FDA-approved assay (Amplicor HIV-1 Monitor®; Roche Diagnostics Corp.; Indianapolis, IN). […]
# [3] = Proof-of-concept trial: entry PK study, deferiprone in serum after the first oral dose; type: in vivo, human; details: for Cmax: human, serum
# Text: Eligible for enrollment were volunteers of both genders, between 18 and 60 years old, healthy or HIV-infected with CD4 count ≥ 300/mm^3, viral load of ≥ 10,000 copies/ml, and absence of active infectious disease; AIDS-defining condition; febrile illness; liver or kidney disease; hypersensitivity to test material; and medication requirement. The protocol involved a screening visit; a pharmacokinetic and antiretroviral study requiring admission to a specialized Phase I research unit for a week of on-drug treatment, with multiple blood draws from a peripheral vein after oral intake of the first deferiprone dose, […], and at least three repeat blood draws (first stage of protocol); an off-drug observation period of eight weeks, which comprised at least two repeat visits (second stage of protocol); and an exit visit. Enrollment complied with the applicable standard-of-care specified in the ‘Clinical Guidelines for the Management of HIV & AIDS in Adults and Adolescents’, National Department of Health, Republic of South Africa. Primary parameters included safety and tolerability (e.g. vital signs, laboratory variables, cardiac monitoring by ECG) and antiretroviral activity (e.g. RNA copies of HIV-1). Secondary parameters included pharmacokinetic variables (e.g. peak serum concentration) in serum, drawn from a peripheral vein at fixed times (0, 0.5, 1, 1.5, 2, 3, 4, 6, 9, 12) after the ingestion of the first dose on Day 1 of the study. The concentration of the nonconjugated, chelation-competent form of deferiprone in serum was determined by UV detection at 280 nm, after separation via reversed-phase HPLC under isocratic conditions. The lower limit of deferiprone quantitation was 1.466 μM, or 0.204 μg/ml. HIV-1 RNA was measured as described and used as log10-transformed parameter in all calculations.
# [4] = cited from earlier work
# [5] = human, in vivo; cited from earlier work
compound,measurement,setting,value
"Cc1c(O)c(=O)ccn1C [deferiprone, 3-hydroxy-1,2-dimethylpyridin-4-one]",p24 after escalation of concentration,[1]; 50 μM for 30 days followed by escalation to 200 μM (data not shown),complete suppression of p24 within one week
same,p24 on-drug,[1]; 100 μM deferiprone,declined to the limit of detectability
same,"p24, level relative to untreated controls",[1]; 100 μM deferiprone,≤ 10%
same,"p24, level relative to untreated controls",[1]; 200 μM deferiprone,≤ 10%
same,extracellular p24 after deferiprone withdrawal,[1]; after 100 μM deferiprone,increased rapidly to levels higher than pre-treatment
same,p24 off-drug,[1]; after 200 μM deferiprone,did not rebound off-drug
same,p24 expression,[1]; below 100 μM deferiprone,only marginally affected
same,decline of HIV-1 DNA,HIV-1 DNA,reached the lower limit of detectability
same,final A450 readings of the HIV-1 DNA test,HIV-1 DNA; 10 days off-drug,negative for the continued presence of HIV-1 DNA
same,DNA fragmentation in infected treated relative to infected untreated cultures,[2]; at 120 hours,twice
same,DNA fragmentation in infected treated relative to infected untreated cultures,"[2]; at 144 hours, P = 0.001",three times as high
same,subjects with serum cmax concentrations above the threshold (150 μM),[3]; 99 mg group,4 of 7
same,subjects with serum cmax concentrations above the threshold (150 μM),[3]; 150 mg group,3 of 4
same,Cmax,"[3]; both sexes, oral, approximation from pharmacokinetic, viral load and tolerability findings, read-out: serum cmax an effective and tolerable regimen may have to achieve",150 to 275 µM
same,Cmax,"[3]; both sexes, po, 33 mg/kg, 99 mg group, first oral dose 33 mg/kg, read-out: cmax, range within group",53 to 314 µM
same,Cmax,"[3]; both sexes, po, 50 mg/kg, 150 mg group, first oral dose 50 mg/kg, read-out: cmax, range within group",128 to 285 µM
same,Cmax,"[3]; oral, 99 mg, Subject 2, 99 mg group, read-out: cmax",314 µM
same,Cmax,"[3]; oral, 150 mg, Subject 19, 150 mg group, read-out: cmax",128 µM
same,Cmax,"[3]; oral, 150 mg, Subject 22, 150 mg group, read-out: cmax",285 µM
same,half-life in peripheral blood,[4]; human,approximately 2 hour
same,peak serum level,"[4]; in vivo, 65.2 mg/kg",up to 450 µM
same,difference in peak serum concentration (cmax) between UGT1A6-typed subjects,"[4]; in vivo, po",up to 35%
same,difference in total drug exposure over time (AUC0 - ∞) between UGT1A6-typed subjects,"[4]; in vivo, po",38%
same,"Abdominal pain/discomfort, patients affected",[5],10.4%
same,"Alanine aminotransferase increased, patients affected",[5],7.5%
same,"Arthralgia, patients affected",[5],9.8%
same,"Headache, patients affected",[5],2.5%
same,"Nausea, patients affected",[5],12.6%
same,"Neutropenia (neutrophils < 1.5 x 10^9/L and > 0.5 x 10^9/L), patients affected",[5],6.2%
same,"Vomiting, patients affected",[5],9.8%
same,"agranulocytosis (absolute neutrophil count less than 0.5 × 10^9/L), patients affected",[5],1.7%
